One may read the pEC50 as the negative decadic logarithm of the EC50, by convention in mol/L. Broadly, the EC50 is the concentration giving half of the maximal effect.

pEC50: −log10 of the molar value. Like-named read-outs stand apart in the source and are kept apart here. No end group written: not given here.

The values below come from patent publication US8568736B2, “Polypeptide derivatives of parathyroid hormone (PTH)” (The General Hospital Corporation, priority 1999, dated 2013).

Assay [1] deals with T1, human PTH-1 receptor (endogenous, SAOS-2 cells) (Homo sapiens, UniProt Q03431).
T1 construct: the human osteoblastic cell line, SAOS-2, express endogenous PTH-1 receptors; endogenous in cells; host or cells: SAOS-2 human osteoblastic cells
T1 sequence (Q03431 27-593): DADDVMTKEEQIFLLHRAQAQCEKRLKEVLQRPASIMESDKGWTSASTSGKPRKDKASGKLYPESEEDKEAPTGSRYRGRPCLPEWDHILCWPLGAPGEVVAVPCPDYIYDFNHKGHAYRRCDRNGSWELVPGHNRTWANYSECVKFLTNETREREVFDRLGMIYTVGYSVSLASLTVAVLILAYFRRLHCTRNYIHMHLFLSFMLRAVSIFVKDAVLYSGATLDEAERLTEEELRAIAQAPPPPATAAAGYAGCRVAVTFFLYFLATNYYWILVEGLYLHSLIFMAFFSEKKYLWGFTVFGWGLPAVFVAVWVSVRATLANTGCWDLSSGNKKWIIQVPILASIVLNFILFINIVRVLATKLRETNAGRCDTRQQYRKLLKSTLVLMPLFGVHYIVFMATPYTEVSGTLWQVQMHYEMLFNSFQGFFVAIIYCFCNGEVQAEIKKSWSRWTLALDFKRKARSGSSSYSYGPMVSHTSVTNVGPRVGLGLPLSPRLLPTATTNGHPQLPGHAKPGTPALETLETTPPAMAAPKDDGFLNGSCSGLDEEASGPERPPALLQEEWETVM
In words: cAMP response in osteoblastic SAOS-2 cells. In kind it is cell-based. Here is the method: The rat osteoblastic cell line ROS 17/2.8 (Majeska, R. J., et al, Endocrinology 107:1494-1503 (1980)) expresses endogenous PTH-1 receptors at levels of 80,000 per cell and the human osteoblastic cell line, SAOS-2, express endogenous PTH-1 receptors at levels of ˜30,000 per cell.
(§1) Stimulation of cells with peptide analogs was performed in 24-well plates. Cells were rinsed with 0.5 mL of binding buffer and treated with 200 μL of cAMP assay buffer (Dulbecco's modified Eagle's medium containing 2 mM 3-isobutyl-1-methylxanthine, 1 mg/mL bovine serum albumin, 35 mM Hepes-NaOH, pH 7.4) and 100 μL of binding buffer containing varying amounts of peptide analog (final volume=300 μL). The medium was removed after incubation for 1 h at room temperature, and the cells were frozen (−80° C.), lysed with 0.5 mL 50 mM HCl, and refrozen (−80° C.). The cAMP content of the diluted lysate was determined by radioimmunoassay. Where possible, cAMP EC50 and Maximum response values were determined using nonlinear regression (see below).
All calculations were performed using Microsoft Excel. Nonlinear regression analysis of cAMP stimulation data was performed using parameters, defined as the Minimum, Maximum, Emax, midpoint (EC50), and slope of the response curve. The predicted response (yp) for a given dose (x) of peptide was calculated using the following equation: yp=Min+[(Max−Min)/(1+(EC50/x)^slope)]. The initial parameter values were estimated from the primary data, and the Excel “Solver function” was then used to vary the four parameters in order to minimize the differences between the predicted and actual responses (least-squares method) (Bowen, W., & Jerman, J., Trends in Pharmacol. Sci. 16:413-417 (1995)). The statistical significance between two data sets was determined using a one-tailed Student's t-test, assuming unequal variances for the two sets.

For the next assay, the target named is T2, PTH-1 receptor (Homo sapiens, UniProt Q03431).
T2 sequence (Q03431 27-593): T1 sequence (Q03431 27-593)
In words: cAMP stimulation in HKRK-B7 cells (LLC-PK1 stably transfected with hPTH-1 receptor). In kind it is cell-based. More on the design: expressed in transfected cells; host or cells: LLC-PK1 porcine kidney cells, clone HKRK-B7. The following applies: for Emax: Emax constrained to ±1 SD of rPTH(1-34) response at 100 nM; for fold more potent than native PTH(1-14): LLC-PK1 cells stably expressing hPTH-1 receptor.
Description: Stably transfected derivatives of the porcine kidney cell line LLC-PK1, HKRK-B7 (Takasu, H., et al., J. Bone Miner. Res. 14:11-20 (1999)) and hPR2-20, express the human PTH-1 and human PTH-2 receptors respectively. The HKRK-B7 LLC-PK1 cell line expresses the hPTH-1 receptor at ˜1×10^6 receptors/cell (Takasu, H., et al., J. Bone Miner. Res. 14:11-20 (1999)), and the hPR2-22 LLC-PK1 cell line expresses the hPTH-2 receptor at ˜0.8×10^6 receptors/cell (provided by H. Takasu and F. R. Bringhurst, Endocrine Unit, Massachusetts General Hospital).
as §1
Intracellular cAMP accumulation may be measured as described by Abou-Samra et al., J. Biol. Chem. 262:1129, 1986) or other methods known to those of skill in the art. Intracellular cAMP is extracted by thawing the cells in 1 ml of 50 mM HCl and analyzed by a specific radioimmunoassay using an anti-cAMP antibody (e.g., Sigma, St. Louis, Mo.). A cAMP analog (2′-O-monosuccinyl-adenosine 3′:5′-cyclic monophosphate tyrosyl methyl ester, obtained from Sigma) which is used as a tracer for cAMP is iodinated by the chloramine T method. Free iodine is removed by adsorbing the iodinated cAMP analog onto a C18 Sep-pak cartridge (Waters, Milford, Mass.). After washing with dH2O, the iodinated cAMP analog is eluted from the Sep-pak Cartridge with 40% acetonitrille (ACN) and 0.1% trifluoroacetic acid (TFA). The iodinated cAMP analog is lyophilized, reconstituted in 1 ml 0.1% TFA, and injected into a C18 reverse phase HPLC column (Waters). The column is equilibrated with 10% ACN in 0.1% TFA, and eluted with gradient of 10-30% ACN in 0.1% TFA. This allows separation of the mono-iodinated cAMP analog from the non-iodinated cAMP analog. The tracer is stable for up to 4 months when stored at −20° C. The standard used for the assay, adenosine 3′:5′-cyclic monophosphate, is purchased from Sigma. Samples (1-10 µl of HCl extracts) or standards (0.04-100 fmol/tube) are diluted in 50 mM Na-acetate (pH 5.5), and acetylated with 10 μl of mixture of triethylamine and acetic anhydride (2:1 vol:vol). After acetylation, cAMP antiserum (100 μl) is added from a stock solution (1:4000) made in PBS (pH 7.4), 5 mM EDTA and 1% normal rabbit serum. The tracer is diluted in PBS (pH 7.4) with 0.1% BSA, and added (20,000 cpm/tube). The assay is incubated at 4° C. overnight. The bound tracer is precipitated by adding 100 μl of goat anti-rabbit antiserum (1:20 in PBS) and 1 ml of 7% polyethyleneglycol (MW 5000-6000), centrifuging at 2000 rpm for 30 min. at 4° C. The supernatant is removed and the bound radioactivity is counted in a gamma-counter (Micromedic). To compute the cAMP data, logit calculations were performed in Excel spreadsheets. Typically, the assay sensitivity is 0.1 fmol/tube, and the standard concentration that displaces 50% of tracer is 5 fmol/tube.
All calculations were performed using Microsoft Excel. Nonlinear regression analysis of cAMP stimulation data was performed using parameters, defined as the Minimum, Maximum, Emax, midpoint (EC50), and slope of the response curve. The predicted response (yp) for a given dose (x) of peptide was calculated using the following equation: yp=Min+[(Max−Min)/(1+(EC50/x)^slope)]. […]

In assay [1], `CCCC[C@H](NC(=O)[C@H](CCCNC(=N)N)NC(=O)[C@H](CCC(=O)O)NC(=O)[C@@H](NC(=O)[C@H](CO)NC(=O)[C@H](C)NC(=O)[C@H](CC(C)C)NC(=O)[C@H](Cc1c[nH]cn1)NC(=O)[C@H](CCCCN)NC(=O)CNC(=O)[C@H](CC(C)C)NC(=O)[C@H](CC(N)=O)NC(=O)[C@H](Cc1c[nH]cn1)NC(=O)[C@H](CCCC)NC(=O)[C@H](CC(C)C)NC(=O)[C@H](CCC(N)=O)NC(=O)[C@@H](NC(=O)[C@H](CCC(=O)O)NC(=O)[C@H](CO)NC(=O)[C@@H](NC(=O)[C@H](C)N)C(C)C)[C@@H](C)CC)C(C)C)C(=O)N[C@@H](CCC(N)=O)C(=O)N[C@@H](Cc1c[nH]c2ccccc12)C(=O)N[C@@H](CC(C)C)C(=O)N[C@@H](CCCNC(=N)N)C(=O)N[C@@H](CCCCN)C(=O)N[C@@H](CCCCN)C(=O)N[C@@H](CC(C)C)C(=O)N[C@@H](CCC(N)=O)C(=O)N[C@@H](CC(=O)O)C(=O)N[C@H](C(=O)N[C@@H](Cc1c[nH]cn1)C(=O)N[C@@H](CC(N)=O)C(=O)N[C@@H](Cc1ccc(O)cc1)C(N)=O)C(C)C` [[Nle8, 21, Y34]rPTH(1-34), [Nle^8,21,Tyr^34]-rPTH(1-34)NH2, reference compound] gave a pEC50 of 9.75. The Emax in assay [1] (SAOS-2 cells) is listed as 272 ± 33 picomole/well; at PTH-1 receptor (HKRK-B7 cells) it was 293 ± 29 picomole/well. Moreover, the “EC50 Log M” value on PTH-1 receptor (HKRK-B7 cells (hPTH-1 Receptor), cAMP, mean ± SEM) is reported as −8.6 ± 0.1 Log M.

For the molecule “AVAEIQLMHAR-NH2 [compound 6, AlaValAlaGluIleGlnLeuMetHisAlaArg-amide]”, the Emax in assay [1] (SAOS-2 cells) is 235 ± 7 picomole/well; at PTH-1 receptor (HKRK-B7 cells), 248 ± 13 picomole/well. In addition, in assay [1] (SAOS-2 cells, cAMP, read-out: EC50 (converted)), the 50% effective concentration (EC50) was 75900 nM. The “cAMP signaling activity (in words)” value on PTH-1 receptor (HKRK-B7 cells, dose-response) is “signaling activity was readily observed”.

In the case of “AVAEIQLMHARAKH-NH2 [Peptide #1, AlaValAlaGluIleGlnLeuMetHisAlaArgAlaLysHis-amide]”, the Emax was 331 picomole/well in assay [1] (SAOS-2 cells) and 264 ± 16 picomole/well at PTH-1 receptor (HKRK-B7 cells). Besides, the “fold more potent than native PTH(1-14)” value at PTH-1 receptor (cAMP) came out at 160 fold; at PTH-1 receptor (cAMP, listed as [A^3, A^10, R^11, A^12]rPTH(1-14)amide), 100 fold.

Molecule “AVAEIQLMHARAKHLNSMERVEWLRKKLQDVHNY-NH2 [Peptide #7]” showed a pEC50 in assay [1] of 9.95. Also, the figures for the Emax (in assay [1] (SAOS-2 cells); on PTH-1 receptor (HKRK-B7 cells)) were 272 ± 33 picomole/well and 244 picomole/well, respectively. The “fold more potent than the two controls, rPTH(1-34) and hPTH(1-34)” value on PTH-1 receptor (HKRK-B7 cells, cAMP) was “about 2 fold”.

In the case of “AVSEIQLMHNLGKH-NH2 [native rPTH(1-14), AVSEIQLMHNLGKH, reference compound]”, the “EC50 Log M” value in assay [1] (SAOS-2 cells, cAMP) is “barely active”. This molecule showed an Emax at PTH-1 receptor (HKRK-B7 cells) of 299 ± 27 picomole/well.
